target: T1, neuraminidase (NA), from Sigma-Aldrich; type: biochemical; details: read-out: HPLC-FLD
T1 construct: gene nanH

Molecule O=c1ccc2ccc3occc3c2o1 [compound 11, Angelicin] has an IC50 of 2550 ± 380 µM.

target: T1, neuraminidase (NA), from Sigma-Aldrich; type: biochemical; details: read-out: HPLC-FLD; remark: another data set of the same source

O=C(/C=C/c1ccc(O)c(O)c1)O[C@@H]1C[C@](O)(C(=O)O)C[C@@H](O)[C@H]1O [compound 3, Chlorogenic acid] and O=C(/C=C/c1ccc(O)c(O)c1)O[C@H]1[C@H](O)C[C@](O)(C(=O)O)C[C@H]1O [compound 4, Cryptochlorogenin acid] are within 1.5-fold of each other in IC50: 2560 ± 60 µM for the first, 2200 ± 10 µM for the second.

First: O=C(O)[C@H]1O[C@@H](Oc2cc3oc(-c4ccccc4)cc(=O)c3c(O)c2O)[C@H](O)[C@@H](O)[C@@H]1O [compound 7, Baicalin]
Second: O=c1cc(-c2ccccc2)oc2cc(O)c(O)c(O)c12 [compound 8, Baicalein]
The IC50 of the first is 4.5-fold higher: 500 ± 40 µM for the first, 110 ± 10 µM for the second. The second is the more potent here.

Compared with COc1ccc2ccc(=O)oc2c1CC=C(C)C [compound 14, Osthole], CC(C)=CCOc1c2ccoc2cc2oc(=O)ccc12 [compound 9, Isoimpemtorin] is 3.2-fold lower in IC50: 2140 ± 150 µM for the first, 660 ± 160 µM for the second. The second is the more potent here.

O=c1ccc2cc3ccoc3c(O)c2o1 [compound 12, Xanthotol] and O=c1ccc2cc3ccoc3cc2o1 [compound 10, Psoralen] are within error of each other in IC50: 1050 ± 70 µM for the first, 1000 ± 630 µM for the second.

COC(=O)C1=CO[C@@H](O[C@@H]2O[C@H](CO)[C@@H](O)[C@H](O)[C@H]2O)[C@@H]2C(CO)=CC[C@H]12 [compound 1, Geniposide] and O=C(/C=C/c1ccc(O)c(O)c1)O[C@@H]1[C@H](O)C[C@@](O)(C(=O)O)C[C@H]1OC(=O)/C=C/c1ccc(O)c(O)c1 [compound 6, Isochlorogenic acid C] are within 1.5-fold of each other in IC50: 970 ± 90 µM for the first, 1170 ± 50 µM for the second.

Molecule COc1c2ccoc2cc2oc(=O)ccc12 [compound 13, Bergapten] has an IC50 of 2800 ± 160 µM.

same assay, conditions: read-out: NA enzyme-based inhibitory assays

COC(=O)C1=CO[C@@H](O[C@@H]2O[C@H](CO)[C@@H](O)[C@H](O)[C@H]2O)[C@H]2[C@@H]1[C@H](O)C[C@]2(C)O [compound 2, Shanzhiside methyl ester] was tested, and the IC50 was 10 µM.

— PMC8410435, “Evaluation of Neuraminidase Inhibitory Activity of Compounds and Extracts from Traditional Medicines by HPLC-FLD” (International Journal of Analytical Chemistry, 2021)
